“Also recorded” adds a separate entry of the source.
Experiments:
site IF = biological target: T1, site IF (Rattus norvegicus, UniProt Q5XIH3); assay: Relationship of site IF ROS production to steady state matrix NAD(P)H reduction; type: biochemical; details: high NADH reduction (>90%)
T1 construct: freshly isolated muscle mitochondria were assayed; from tissue; host or cells: rat skeletal muscle mitochondria (Wistar, Harlan Laboratories)
Description: The rate of ROS production from site IF is linked to the reduction state of the NAD(P)H pool in the mitochondrial matrix (Treberg et al., 2011; Quinlan et al, submitted). Therefore, to evaluate the mechanism of action of putative IF ROS inhibitors, the effect of candidate compounds on the relationship between site IF ROS production and NAD(P)H reduction was tested.

GPDH = biological target: T2, GPDH (Rattus norvegicus, UniProt P35571); assay: Retest of GPDH ROS production (expanded microplate panel / cuvette); type: biochemical; details: microplate or cuvette
T2 construct: from tissue; host or cells: rat skeletal muscle mitochondria (Wistar, Harlan Laboratories)
T2 sequence (P35571 43-727): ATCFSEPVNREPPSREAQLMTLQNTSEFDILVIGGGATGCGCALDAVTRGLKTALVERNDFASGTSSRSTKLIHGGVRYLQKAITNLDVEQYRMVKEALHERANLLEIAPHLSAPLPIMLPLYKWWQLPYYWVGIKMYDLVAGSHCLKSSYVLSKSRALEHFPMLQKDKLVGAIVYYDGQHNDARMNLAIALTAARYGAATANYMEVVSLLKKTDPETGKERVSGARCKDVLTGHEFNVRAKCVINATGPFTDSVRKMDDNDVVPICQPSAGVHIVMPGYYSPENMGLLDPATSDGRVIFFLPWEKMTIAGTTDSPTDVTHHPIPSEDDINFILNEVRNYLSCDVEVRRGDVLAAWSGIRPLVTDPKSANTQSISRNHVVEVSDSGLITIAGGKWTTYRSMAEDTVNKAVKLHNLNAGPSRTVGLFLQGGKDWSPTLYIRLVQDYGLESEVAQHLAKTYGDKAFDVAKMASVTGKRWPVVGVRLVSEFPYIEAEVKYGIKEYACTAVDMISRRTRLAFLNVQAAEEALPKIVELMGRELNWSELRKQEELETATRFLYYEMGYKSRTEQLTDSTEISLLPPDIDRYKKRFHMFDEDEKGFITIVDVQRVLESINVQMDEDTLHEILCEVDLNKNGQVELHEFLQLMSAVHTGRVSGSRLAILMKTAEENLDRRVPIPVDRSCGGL
Description: Compounds identified as site-selective hits as well as structural analogs were re-sourced from ChemBridge and dissolved in DMSO as 80 mM stocks. Master Titration Plates were prepared manually by serially diluting 80 mM compound stocks between 0.08 and 80 mM on 96-well microplates. Four compounds were titrated in duplicate on each plate. Additional DMSO controls were interspersed across these plates to serve as local normalization controls during analysis since two-way median polishing was not appropriate. Just prior to use, compounds were diluted 100-fold with standard buffer (10X). The same known inhibitor positive controls were included on each plate as during high-throughput screening.
The five core ROS assays and single ΔΨm assay were carried out as in the initial high-throughput screen. In addition, several assays were included to help validate the specificity of the compounds for a given site of production. All compounds were titrated against separate assays targeting IQ ROS and IIIQo ROS using subsaturating (0.5 mM final) succinate. […] Specifically, ΔΨm was monitored separately with 5 mM succinate (in the presence of 4 μM rotenone) in addition to glutamate and malate as before. The use of different substrates was designed to reveal compounds that disrupt mitochondrial function in a substrate specific manner.
Most frequently, these changes involved the use of different substrates to supply electrons from an alternative entry point in the chain. If a site of ROS production is being targeted selectively by a compound, then in many cases the supply of electrons should not influence the effectiveness of this compound at suppressing ROS production. […]
The fluorescence values in each well were scaled in relation to the intra-plate DMSO and known inhibitor controls as in the high-throughput screen except that median values for local interspersed DMSO wells (3-6 wells) were used rather than just the 8 DMSO wells in columns 1 and 12. […]

T1 sequence (Q5XIH3 21-464 limits assumed): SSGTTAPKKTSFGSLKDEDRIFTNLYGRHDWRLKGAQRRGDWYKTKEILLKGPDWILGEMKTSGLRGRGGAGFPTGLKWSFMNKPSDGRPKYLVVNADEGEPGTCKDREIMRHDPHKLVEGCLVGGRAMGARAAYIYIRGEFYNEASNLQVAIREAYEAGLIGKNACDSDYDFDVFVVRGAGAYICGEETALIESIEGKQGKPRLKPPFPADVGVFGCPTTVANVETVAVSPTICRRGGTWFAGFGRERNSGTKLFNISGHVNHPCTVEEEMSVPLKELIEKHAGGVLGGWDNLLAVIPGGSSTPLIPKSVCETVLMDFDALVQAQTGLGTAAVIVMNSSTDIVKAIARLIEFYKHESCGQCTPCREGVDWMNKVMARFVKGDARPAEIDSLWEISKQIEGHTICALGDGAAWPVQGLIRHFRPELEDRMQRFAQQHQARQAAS

| SMILES | ROS production from site IF in relation to NADH reduction (site IF) | effect on GPDH ROS on retesting (GPDH) |
| --- | --- | --- |
| Cc1ccc(C)c(CN(CCCN(C)C)CCCN(C)C)c1 [Compound 32] | lowers the amount of ROS production from site IF as the matrix NADH pool becomes strongly reduced; also recorded: the expected ROS production was suppressed | – |
| O=C(O)CSc1cccc(C(=O)Nc2ccc(Br)cc2)c1 [Compound 47] | – | progressively inhibited GPDH ROS |
| O=C(O)CCC(=O)Nc1ccc(-c2nc3cc4ccccc4cc3[nH]2)cc1 [Compound 61] | – | more potent inhibitor of GPDH-specific ROS, ΔΨm, and respiration |

From patent US20140128352A1, “COMPOUNDS AND METHODS FOR MODULATING MITOCHONDRIAL METABOLISM AND REACTIVE OXYGEN SPECIES PRODUCTION” (Buck Institute for Research on Aging, priority 2012, published 2014)
